Source: patent US10906880B2, “Kind of isothiazole oxime ether-containing strobilurin derivatives and its preparation methods and application” (priority 2016, dated 2021)
Where two headings read alike, the source gives them in different places.

Experiments:
Alternaria solani = assay: Fungicide activity, mycelial growth inhibition on PDA plate; type: cell-based; settings: for inhibition at 50 µg/mL: Alternaria solani, read-out: Fungicidal activity inhibition, AS
Cercospora arachidicola = assay: as above; type: cell-based; settings: for inhibition at 50 µg/mL: Mycosphaerella arachidis, read-out: Fungicidal activity inhibition, CA
Gibberella zeae = assay: microbe, parasite or virus in culture; type: cell-based; settings: for inhibition at 50 µg/mL: Fusarium graminearum, read-out: Fungicidal activity inhibition, GZ, 50 μg/mL, G. zeae; for Fungicidal activity inhibition, GZ: 50 μg/mL, G. zeae
Physalospora piricola = assay: Fungicide activity, mycelial growth inhibition on PDA plate; type: cell-based; settings: for inhibition at 50 µg/mL: 50 μg/mL, P. piricola, read-out: Fungicidal activity inhibition, PP
Botrytis cinerea = assay: as above; type: cell-based; settings: for inhibition at 50 µg/mL: Botrytis cinerea, read-out: Fungicidal activity inhibition, BC
Sclerotinia sclerotiorum = assay: as above; type: cell-based; settings: for inhibition at 50 µg/mL: Sclerotinia sclerotiorum, read-out: Fungicidal activity inhibition, SS
Rhizoctonia cerealis = assay: as above; type: cell-based; settings: for inhibition at 50 µg/mL: Ceratobasidium cereale, read-out: Fungicidal activity inhibition, RC
Pellicularia sasakii = assay: as above; type: cell-based; settings: for inhibition at 50 µg/mL: 50 μg/mL, P. sasakii, read-out: Fungicidal activity inhibition, PS
[1] = test system: Phytophthora infestans (Mont) de Bary; assay: microbe, parasite or virus in culture; type: cell-based; settings: for inhibition at 50 µg/mL: Phytophthora infestans, read-out: Fungicidal activity inhibition, PI, 50 μg/mL, P. infestans (Mont.) de Bary; for Fungicidal activity inhibition, PI: 50 μg/mL, P. infestans (Mont.) de Bary
TMV [2] = assay: Anti-TMV activity on tobacco, curative mode; type: in vivo, tobacco mosaic virus; settings: Tobacco mosaic virus, 100 μg/mL, tobacco; read-out: Anti-TMV activity inhibition, Curative effect
TMV [3] = assay: Anti-TMV activity on tobacco, inactivation mode; type: in vivo, tobacco mosaic virus; settings: Tobacco mosaic virus, 100 μg/mL, read-out: Anti-TMV activity inhibition, Inactivation effect
TMV [4] = assay: Anti-TMV activity on tobacco, protection mode; type: in vivo, tobacco mosaic virus; settings: Tobacco mosaic virus, 100 μg/mL, read-out: Anti-TMV activity inhibition, Protection effect
TMV [5] = assay: Anti-TMV activity on tobacco, induction mode (systemic acquired resistance); type: in vivo, tobacco mosaic virus; settings: Tobacco mosaic virus, 100 μg/mL, read-out: Anti-TMV activity inhibition, Induction effect

SMILES	inhibition at 50 µg/mL (Alternaria solani; 50 μg/mL, A. solani) [%]	inhibition at 50 µg/mL (Cercospora arachidicola; 50 μg/mL, C. arachidicola) [%]	inhibition at 50 µg/mL (Physalospora piricola) [%]	inhibition at 50 µg/mL (Botrytis cinerea; 50 μg/mL, B. cinerea) [%]	inhibition at 50 µg/mL (Botrytis cinerea) [%]	inhibition at 50 µg/mL (Sclerotinia sclerotiorum; 50 μg/mL, S. sclerotiorum) [%]	inhibition at 50 µg/mL (Sclerotinia sclerotiorum) [%]	inhibition at 50 µg/mL (Rhizoctonia cerealis; 50 μg/mL, R. cerealis) [%]	inhibition at 50 µg/mL (Rhizoctonia cerealis) [%]	inhibition at 50 µg/mL (Pellicularia sasakii) [%]	inhibition at 100 µg/mL (TMV [2]) [%]	inhibition at 100 µg/mL (TMV [3]) [%]	inhibition at 100 µg/mL (TMV [4]) [%]	melting point [°C]	inhibition at 100 µg/mL (TMV [5]) [%]	inhibition at 50 µg/mL (Alternaria solani) [%]	inhibition at 50 µg/mL (Cercospora arachidicola) [%]	Fungicidal activity inhibition, GZ (Gibberella zeae) [%]	Fungicidal activity inhibition, PI [1] [%]	also measured
CO/N=C(/C(=O)N[C@@H](C)CSC)c1ccccc1CO/N=C(\C)c1snc(Cl)c1Cl [CL04-22F]	16.4	12.5	32.8	45.5	> 45	52.9	> 40	76	> 50	15.2	1.52 ± 0.62	0	23.8 ± 3.42	35 to 37	–	–	–	–	–	inhibition at 50 µg/mL (Gibberella zeae): > 30%; inhibition at 50 µg/mL [1]: 17.1%
CO/N=C(/C(=O)NC1CC1)c1ccccc1CO/N=C(\N)c1snc(Cl)c1Cl [CL04-25B]	21.3	28	22.8	36.8	–	73.3	> 40	85.4	> 50	18.9	20.5 ± 1.84	0	19.6 ± 3.36	–	18.6 ± 3.76	–	–	–	–	inhibition at 50 µg/mL [1]: 33.3%
CNC(=O)/C(=N/OC)c1ccccc1CO/N=C(\N)c1snc(Cl)c1Cl [CL04-25C]	34.4	44	40.4	57.9	> 45	66.7	> 40	100	–	83.8	14.7 ± 4.84	0	> 40	122 to 124	–	> 30	> 30	100	100	–
CO/N=C(/C(=O)NCC(F)F)c1ccccc1CO/N=C(C)/C=C/c1snc(Cl)c1Cl [CL04-32A]	34.4	36	29.8	52.6	> 45	53.3	> 40	85.4	> 50	35.1	1.52 ± 0.62	> 30	> 40	98 to 100	> 30	> 30	> 30	–	–	inhibition at 50 µg/mL (Gibberella zeae): > 30%
CO/N=C(/C(=O)NC1CC1)c1ccccc1CO/N=C(C)/C=C/c1snc(Cl)c1Cl [CL04-32C]	47.5	60	71.9	57.9	> 45	73.3	> 40	70.7	> 50	67.6	31.6 ± 3.91	> 30	19 ± 0.72	95 to 97	16 ± 7.71	> 30	> 30	–	100	–
CNC(=O)/C(=N/OC)c1ccccc1CO/N=C(C)/C=C/c1snc(Cl)c1Cl [CL04-32D]	54.1	84	64.9	84.2	> 45	73.3	> 40	85.4	> 50	89.2	1.52 ± 0.62	–	39.1 ± 2.73	137 to 139	> 30	> 30	–	100	100	–
CO/C=C(/C(=O)OC)c1ccccc1CO/N=C(C)/C=C/c1ccc(Cl)cc1 [Enestroburin, reference compound]	–	–	–	–	–	–	–	–	–	–	–	–	–	–	–	–	–	21.54	32.97	Fungicidal activity inhibition, AS (Alternaria solani): 50.00%; Fungicidal activity inhibition, CA (Cercospora arachidicola): 55.22%; Fungicidal activity inhibition, PP (Physalospora piricola): 59.09%; Fungicidal activity inhibition, BC (Botrytis cinerea): 48.57%; Fungicidal activity inhibition, SS (Sclerotinia sclerotiorum): 44.00%; Fungicidal activity inhibition, RC (Rhizoctonia cerealis): 73.97%; Fungicidal activity inhibition, PS (Pellicularia sasakii): 57.50%
